Data set [1] deals with T1, human KRAS G12C protein (Homo sapiens, UniProt P01116, G12C).
T1 construct: purchased Beijing SinoBiological Co., Ltd. 12259-H07E2
As to the kind of experiment: Thermal shift: melting temperature of KRAS G12C protein. The class given is binding. The settings on record: for Tm (° C.): KRAS G12C protein 5.37 μM with compound 10 μM, 1 hour incubation; for ΔTm at 10 µM / ΔTm (° C.): compound 10 μM, Tm minus Tm of DMSO solvent control. Here is the method: A solution containing […] (pH 7.5), 1 mM DTT, 5×SYPRO Orange and 150 mM NaCl was prepared as the experimental buffer, and a final concentration of 5.37 μM human KRAS G12C protein was added thereto. […] After incubating at room temperature in the dark for 1 hour, the PCR tube was put into the PCR instrument, QuantStudio Software v1.3 was opened, and the melting temperature of KRAS G12C protein in different treatment groups was detected by melt curve function (heating from 25° C. to 95° C., 0.03° C./s). The experimental data file of PCR instrument was imported into thermal shift software, and the melting temperature (Tm) of each treatment group was obtained, and the change value of melting temperature (Δ Tm) was obtained by subtracting the Tm of DMSO solvent control group.

Data set [2] has as its system NCI-H358 cells (KRAS G12C mutant cell line). Briefly: Inhibition of NCI-H358 cell proliferation (CellTiter-Glo, 72 h). The class given is cell-based, human. The source says:
(§1) As a preferred embodiment of the present disclosure, the detection method of NCI-H358 cell proliferation inhibitory activity and Mia PaCa-2 cell proliferation inhibitory activity is as follows: through cell culture, adding different concentrations of compound solutions to the cultured cells, continuing the culture for a period of time and measuring the cell proliferation; • further, the method of cell culture is: adjusting the cells to a suitable cell concentration with complete medium and spreading the cell suspension in well plates for culture; preferably, the culture conditions are 37° C., 5% CO2 incubator overnight; preferably, the cell suspension is spread in 96-well plates, 48-well plates, 24-well plates, 12-well plates or 6-well plates, more preferably 96-well plates; preferably, the suitable cell concentration is 1500-4000 cells/well, with 90 μL of cell suspension added to each well; • further, the compound solution is prepared with DMSO and may be further diluted with medium; preferably, the compound solution has a concentration gradient starting from 100 μM at 4-fold dilution, more preferably starting from 30 μM at 4-fold dilution, most preferably starting from 10 μM at 4-fold dilution; • further, the volume of the compound solution or solvent added to each well is 1-10 μL, preferably 10 μL; • further, after adding the compound solution, the conditions for continuing the culture are 37° C., 5% CO2 incubator; preferably, the culture time is 24-72 h, more preferably 72 h; • further, the method for measuring cell proliferation is MTT, CCK8, CellTiter-Glo; preferably the method is CellTiter-Glo; • further, the cell proliferation is read using a microplate reader, more preferably a BioTek Synergy H1 microplate reader.
(§2) When NCI-H358 or Mia PaCa-2 cells were cultured to the appropriate fusion level, the NCI-H358 or Mia PaCa-2 cells were collected, and the cells were adjusted to the appropriate cell concentration using a complete medium, and the cell suspension was spread in a 96-well plate, 90 μL per well, and placed in a 37° C., 5% CO2 incubator overnight; and compound solutions of different concentrations were prepared using DMSO and culture medium; and a solvent control was set, the compound solution was added to a 96-well plate, 10 μL per well, at 37° C. in a 5% CO2 incubator for 72 hours; CellTiter-Glo solution was added thereto and the mixture was mixed well by shaking, incubated for 10 min in the dark, and read by BioTek Synergy H1 microplate reader.
(§3) The luminescence signal values were used to calculate the inhibition rate, the concentration and the inhibition rate were fitted to a nonlinear regression curve using Graphpad Prism software, then the IC50 value was obtained.

Data set [3] deals with Mia PaCa-2 cells (KRAS G12C mutant cell line). Briefly: Inhibition of Mia PaCa-2 cell proliferation (CellTiter-Glo, 72 h). The class given is cell-based, human.
From the text: as §1, §2, §3
A general note: Cellular ATP, detected with luciferase, serves as a proxy for viable cell number.

The nature of data set [4]: Plasma stability, rat plasma. The note with it: rat plasma, 37° C. The class given is in vitro ADME. Here is the method:
(§4) Animal or human whole blood was collected, then the blood was put into a test tube containing anticoagulant, centrifuged at 3500 rpm for 10 min, and the upper layer of pale yellow plasma was collected. • 2), 10 μM of tested compound (m/M/V=C)
(§5) The compound was weighed, the stock solution was prepared with DMSO and the working solution was prepared with 100 mM phosphate buffer. • 3), 10 μM of positive control (1) Propantheline (Propantheline Mr=449.4 Da)
(§6) • 1) 285 μL of plasma and 15 μL of 10 μM compound (tested compound) were added in turn in a 96-well plate, and incubated at 37° C. • 2) 40 μL was taken out at 0, 15, 30, 60, 90, 120 min, respectively, and 160 μL of acetonitrile termination solution containing internal standard was added. • 3) After centrifugation (3500 rpm, 10 min), 50 μL of supernatant was taken out, and then diluted with 50 μL DDH2O and injected to LC-MS/MS.
(§7) • Instrument: Shimadzu LC-20 AD • Chromatographic column: phenomenex Gemiu® C18 (50*4.6 mm, 5 μM particle size); • mobile phase: A: acetonitrile, B: 0.1% formic acid solution […], 2.0-2.1 min: 90% A→5% A; flow rate: 0.8 mL/min; running time: 5.0 min; injection volume: 5 μL.
(§8) • Instrument: API4000 Liquid Chromatography-Mass Spectrometry, AB, USA; • the ion source was electrospray ionization source (ESI); • the temperature of dry gas (N2) was 500° C.; • electrospray voltage was 5500V; • the detection method was positive ion detection; • the scanning mode was selective response monitoring (MRM). • the scanning time was 0.1 s.

Data set [5] is described as follows: Plasma stability, dog plasma. The class given is in vitro ADME. The settings on record: dog plasma, 37° C. Here is the method: as §4, §5, §6, §7, §8

Read-outs that look alike come from different tables or passages of the source.

As usually defined, the ΔTm is the change in melting temperature against a reference sample. As a reminder, the IC50 is the concentration needed to halve the response being measured. Consider `C=CC(=O)N1CCN(c2nc(=O)n(-c3c(C)ccnc3C(C)C)c3nc(-c4c(F)cccc4S(C)(=O)=O)c(F)cc23)[C@@H](C)C1` [Embodiment 77, (S)-4-(4-acryloyl-2-methylpiperazin-1-yl)-6-fluoro-1-(2-isopropyl-4-methylpyridin-3-yl)-7-(2-(methylsulfonyl-6-fluoro)phenyl) pyrido [2,3-d] pyrimidin-2 (1H)-one], for which, in data set [1], the “Tm (° C.)” value turned out to be 60.4 °C and the ΔTm at 10 µM was 9.8 °C. In addition, in data set [2] (Homo sapiens), the IC50 is 117 nM. The IC50 in data set [3] (Homo sapiens) came out at 120 nM.
With `C=CC(=O)N1CCN(c2nc(=O)n(-c3c(C)ccnc3CC(C)C)c3nc(-c4c(F)cccc4SCC)c(F)cc23)[C@@H](C)C1` [Embodiment 118], in data set [1], the “Tm (° C.)” value came to 59.0 °C and the “ΔTm (° C.)” value worked out at 8.4 °C. In addition, the IC50 in data set [2] came to 89 nM. Besides, the IC50 in data set [3] is 82 nM.
Turning to `C=CC(=O)N1CCN(c2nc(=O)n(-c3c(SC)ccnc3C(C)C)c3nc(-c4c(O)cccc4F)c(Cl)cc23)[C@@H](C)C1` [Embodiment 130], in data set [1], the “Tm (° C.)” value worked out at 61.5 °C. Moreover, the “ΔTm (° C.)” value in data set [1] is 10.9 °C. Further, the values for the IC50 in data set [2] and in data set [3] were 14 nM and 41 nM, respectively.
Turning to `C=CC(=O)N1CCN(c2nc(=O)n(-c3c(SC)ccnc3C(C)C)c3nc(-c4c(F)cccc4SC)c(F)cc23)[C@@H](C)C1` [Embodiment 131], in data set [1], the “Tm (° C.)” value is 61.2 °C and the “ΔTm (° C.)” value was 11.7 °C. Further, the IC50 in data set [2] was determined as 48 nM. For the same molecule, the IC50 in data set [3] stood at 47 nM.
The like results for `C=CC(=O)N1CCN(c2nc(=O)n(-c3c(C)ccnc3C(C)C)c3nc(-c4ccccc4SC)c(F)cc23)[C@@H](C)C1` [Embodiment 138] were, in that order, 59.4 °C, 8.8 °C, 67 nM and 104 nM.
In the case of `C=CC(=O)N1CCN(c2nc(=O)n(-c3c(SC)ccnc3C(C)C)c3nc(-c4c(N)ccc(Cl)c4F)c(Cl)cc23)[C@@H](C)C1` [Embodiment 150, 4-((S)-4-acryloyl-2-methylpiperazin-1-yl)-7-(6-amino-3-chloro-2-fluorophenyl)-6-chloro-1-(2-isopropyl-4-(methylthio)pyridin-3-yl) pyrido [2,3-d] pyrimidin-2 (1H)-one], in data set [1], the “Tm (° C.)” value is 60.2 °C and the ΔTm at 10 µM was found to be 13.4 °C. The IC50 in data set [2] (Homo sapiens) was found to be 5.4 nM. Also, the IC50 in data set [3] (Homo sapiens) worked out at 8.6 nM.
As for `C=CC(=O)N1CCN(c2nc(=O)n(-c3c(SC)cc(C)nc3C(C)C)c3nc(-c4c(O)cccc4F)c(F)cc23)[C@@H](C)C1` [Embodiment 152, 4-((S)-4-acryloyl-2-methylpiperazin-1-yl)-6-fluoro-7-(2-fluoro-6-hydroxyphenyl)-1-(2-isopropyl-6-methyl-4-(methylthio)pyridin-3-yl) pyrido [2,3-d] pyrimidin-2 (1H)-one], in data set [1], the “Tm (° C.)” value came out at 60.0 °C and the ΔTm at 10 µM came out at 11.4 °C. Also, the IC50 in data set [2] (Homo sapiens) turned out to be 45 nM. In addition, the IC50 in data set [3] (Homo sapiens) was found to be 91 nM.
Consider `C=CC(=O)N1CCN(c2nc(=O)n(-c3c(S(C)(=O)=O)ccnc3C(C)C)c3nc(-c4c(O)cccc4F)c(Cl)cc23)[C@@H](C)C1` [Embodiment 155, 4-((S)-4-acryloyl-2-methylpiperazin-1-yl)-6-chloro-7-(2-fluoro-6-hydroxyphenyl)-1-(2-isopropyl-4-(methylsulfonyl)pyridin-3-yl) pyrido [2,3-d] pyrimidin-2 (1H)-one], for which, in data set [1], the “Tm (° C.)” value amounted to 60.9 °C and the ΔTm at 10 µM turned out to be 11.1 °C. In addition, the IC50 in data set [2] (Homo sapiens) is 24 nM. In data set [3] (Homo sapiens), the IC50 is 26 nM.
For the molecule `C=CC(=O)N1C[C@H](C)N(c2nc(=O)n(-c3c(SC)ccnc3C(C)C)c3nc(-c4c(N)ccc(Cl)c4F)c(Cl)cc23)C[C@H]1C` [Embodiment 165, 4-((2S, 5R)-4-acryloyl-2,5-dimethylpiperazin-1-yl)-7-(6-amino-3-chloro-2-fluorophenyl)-6-chloro-1-(2-isopropyl-4-(methylthio)pyridin-3-yl) pyrido [2,3-d] pyrimidin-2 (1H)-one], in data set [1], the “Tm (° C.)” value came to 58.0 °C and the ΔTm at 10 µM is 11 °C. In addition, the IC50 in data set [2] (Homo sapiens) turned out to be 5.9 nM. Moreover, the IC50 in data set [3] (Homo sapiens) is 7.6 nM.
Turning to `CC[C@H](C)C(=O)O[C@H]1C[C@@H](C)C=C2C=C[C@H](C)[C@H](CC[C@@H]3C[C@@H](O)CC(=O)O3)[C@H]21` [Lovastatin, reference compound], the “t1/2” value was determined as 6.69 min in data set [4] and 80.22 min in data set [5]. The “Residual rate (%) 0 min” value in data set [4] (0 min) and in data set [5] (0 min) was 100.00% throughout. Also, the “Residual rate (%) 15 min” value in data set [4] (15 min) is listed as 21.15%; in data set [5] (15 min), 95.25%. For the same molecule, the “Residual rate (%) 30 min” value in data set [4] (30 min) amounted to 1.77%; in data set [5] (30 min) it was 95.45%. For the same molecule, the “Residual rate (%) 60 min” value was found to be 0.36% in data set [4] (60 min) and 75.66% in data set [5] (60 min). Also, the “Residual rate (%) 120 min” value in data set [4] (120 min) was 0.30%; in data set [5] (120 min), 36.25%.

Source of the values: patent US12497396B2, “Nitrogen-containing heterocyclic derivatives, method therefor and application therefor as inhibitors of KRAS G12C for the treatment of cancers” (SHANGHAI HANSOH BIOMEDICAL CO., LTD., priority 2019, dated 2025).
